# Data: patent publication US20240115588A1, “USE OF PROTEASOME INHIBITORS IN THE TREATMENT OF CORONAVIRUS INFECTIONS” (priority 2021, published 2024)
# How the values were obtained:
# [1] = test system: SARS-CoV-2; settings: cited from earlier work; for dose for complete prevention of CPE: Vero E6, shorter drug treatment time, bortezomib could not completely prevent CPE at these doses
# [2] = test system: 2019 Novel Coronavirus, Isolate USA-WA1/2020 (SARS-CoV-2); test: In vitro efficacy in Calu-3 lung cells, immunostaining assay; assay type: cell-based
# [3] = test system: 2019 Novel Coronavirus, Isolate USA-WA1/2020 (SARS-CoV-2); test: In vitro efficacy in Vero E6 cells, immunostaining assay (second testing series); assay type: cell-based; settings: for EC50: Severe acute respiratory syndrome coronavirus 2, Vero C1008
# [4] = target: β5 chymotrypsin-like subunit of the 20S proteolytic site of the proteasome (Homo sapiens, UniProt P28074); settings: proteasome inhibitor dissociation; cited from earlier work
# [5] = test system: Vero E6 cells; settings: cited from earlier work
# [6] = test system: human plasma protein; settings: IV administered bortezomib; average; cited from earlier work
# [7] = test system: Vero E6 cells; settings: ranking of drugs for expected efficacy against SARS-CoV-2; cited from earlier work
# [8] = cited from earlier work
# [9] = Vero E6, shorter treatment schedule
smiles,measurement,setting,value
CCN(CC)CCCC(C)Nc1ccnc2cc(Cl)ccc12 (stereo not shown) [chloroquine],dose for complete prevention of CPE,[1],15 µM
CCC(CC)COC(=O)[C@H](C)N[P@](=O)(OC[C@H]1O[C@@](C#N)(c2ccc3c(N)ncnn23)[C@H](O)[C@@H]1O)Oc1ccccc1 [Remdesivir],EC50,"[2]; Severe acute respiratory syndrome coronavirus 2, Calu-3",252 nM
same,EC50,[3],1150 nM
CC(C)C[C@H](NC(=O)CNC(=O)c1cc(Cl)ccc1Cl)B(O)O [Ixazomib],dissociation half-life,[4],0.3 h
CC(C)C[C@H](NC(=O)[C@H](Cc1ccccc1)NC(=O)c1cnccn1)B(O)O [Bortezomib],doses at which cytotoxicity was observed,[5]; [9],> 30 µM
same,concentration at which cytotoxicity was observed,[5]; Vero E6 cells,2 nM
same,EC50,"[2]; Calu-3 lung cells, MOI 0.001 TCID50/cell, immunostaining at 48±6 hours post inoculation, preliminary results, read-out: EC50",6.9 nM
same,EC100,"[2]; Calu-3 lung cells, whether EC100 was achieved",Achieved
same,EC50,"[2]; Severe acute respiratory syndrome coronavirus 2, Calu-3, Calu-3 lung cells, MOI 0.001 TCID50/cell, immunostaining at 48±6 hours post inoculation, preliminary results, read-out: EC50",7.8 nM
same,in vitro binding to human plasma protein,[6],83%
same,category in algorithmic prediction study,[7],cytotoxic drug
same,EC50,"[3]; Vero E6 cells, MOI 0.001 TCID50/cell, immunostaining at 48±6 hours post inoculation, read-out: EC50",9.92 nM
same,EC100,"[3]; Vero E6 cells, whether EC100 was achieved",Achieved
same,dissociation half-life,[4],1.83 h
same,bioavailability,[8]; IV administration or subcutaneous injection,100%
same,time to peak plasma levels,[8]; after IV administration,approximately 5 minutes
same,dose for complete prevention of CPE,[1],> 30 µM
same,doses at which inhibition of virus-induced cytopathic effects was observed,[1]; [9],> 30 µM
same,concentration inhibiting virus-induced cytopathic effects (CPE),[1]; Vero E6 cells infected with SARS-CoV-2,0.05 µM
